Measured values reported in article PMC11845477, “Exploring the principles behind antibiotics with limited resistance” (Nature Communications, 2025).

How the values were obtained:
[1] = test system: A. baumannii ATCC 17978 (SEN) and A. baumannii ATCC BAA-1605 (MDR); assay: Adaptive laboratory evolution (ALE), relative MIC of evolved lines; type: cell-based, Acinetobacter baumannii
Text: Using the same set of bacterial strains, we initiated adaptive laboratory evolution with the aim to maximize the level of antibiotic resistance in the populations achieved during a longer, but fixed time period.
An established protocol for adaptive laboratory evolution[46],[73] was followed to propagate populations with the highest resistance levels. Starting with an antibiotic concentration that caused approximately 50% growth inhibition, ten parallel populations for each antibiotic-ancestor strain combination were grown for 72 hours at 37 °C with continuous shaking (300 RPM). MHB broth medium was used unless stated otherwise. After each incubation, 20 µl of each culture was transferred to four new wells containing fresh medium with increasing antibiotic concentrations (0.5×, 1×, 1.5×, and 2.5× the previous concentration) in a chessboard layout to monitor potential cross-contamination. Growth was monitored by measuring OD600 using a Biotek Synergy 2 microplate reader, and only populations grown in the highest drug concentration with an OD600 > 0.2 were transferred further.
A robotic liquid handling system was used to automatically prepare a 11 to 16-step serial dilution in 384-well microtiter plates (Greiner). A final concentration of 5 × 10^5 bacterial cells per mL were inoculated into each well containing 60 µL MHB medium. Bacterial cultures were incubated at 37 °C with continuous shaking (Infors shaker, 900 rpm with 3 mm throw) for 18 hours (2 replicates from each). Cell growth was monitored by measuring the optical density (OD600 values, using Biotek Synergy microplate reader). MIC was defined as the antibiotic concentration of complete growth inhibition (i.e., OD600 < 0.05). Relative MIC was calculated as follows:1 relativeMIC=MICevolved/MICancestor […]
Supplementary Figure 4. Resistance levels following adaptive laboratory evolution across bacterial strains. The level of resistance was measured as the fold change in relative MIC between evolved and ancestral strains after ~60 days of adaptive laboratory evolution. Data are grouped by bacterial strain (A. baumannii (AB), E. coli (EC), K. pneumoniae (KP), and P. aeruginosa (PA)) and categorized as either multidrug-resistant (MDR) or sensitive (SEN). Each data point represents a laboratory evolved line, and boxplots show the median, first and third quartiles, with whiskers indicating the 5th and 95th percentiles.
Statistical analysis was performed using two-sided Dunn’s post-hoc test with Benjamini-Hochberg correction for multiple comparisons (****/ ***/ **/ * indicates p < 0.0001/ 0.001/ 0.01/ 0.05). For detailed information on antibiotic and bacterial species, see Supplementary Table 1. For mode of action groups, refer to Table 1. Source data are provided as a Source Data file.

[2] = test system: E. coli BW25113: pUCacrAB; assay: AcrAB-TolC efflux overexpression screen, relative MIC; type: cell-based, Escherichia coli; settings: pUCacrAB vs empty pUC118 control
Protocol: Fig. 6 The impact of AcrAB-TolC activity on antibiotic susceptibility. E. coli strains with AcrAB-TolC depletion (BW25113-ΔacrB) and overexpression (BW25113: pUCacrAB) were treated with various antibiotics, and the level of resistance was determined as minimum inhibitory concentration (MIC) relative to a wild-type strain, presented on a logarithmic scale (log2). Each bar represents the mean resistance level (susceptibility, i.e., level of resistance < 0; and resistance, i.e., level of resistance > 0) to antibiotics induced by acrAB overexpression (blue bars; E. coli with a multicopy plasmid of the acrAB genes (pUCacrAB)) and acrB deletion (red bars; mutant E. coli with acrB gene deletion (ΔacrB)) compared to the wild-type. Data are presented as mean values of 3 biological replicates ± SD. […] Detailed information on antibiotic and bacterial strain abbreviations is provided in Supplementary Data 1. Source data are provided as a Source Data file. For information on mode of action groups, refer to Table 1.
For the efflux deficiency screen, the ΔacrB mutant of E. coli K12 BW25113[86] and its equivalent wild-type control strain with intact gene were utilized. In contrast, BW25113 carrying a multicopy acrAB plasmid (pUCacrAB)[87] and its control strain harboring an empty pUC118 plasmid were used to overexpress the acrAB efflux system. According to established protocols via P1 transduction, the suitable acrB deletion mutant (ΔacrB BW25113) was created, while the pUCacrAB plasmid was kindly provided by Kunihiko Nishino and Akihito Yamaguchi (Osaka University, Osaka, Japan). In a prior study, both strains were employed. Since the copy number of the plasmid carrying the efflux pump is controlled by native promoters, external induction is unnecessary.
Antibiotic susceptibilities of these strains were evaluated using a modified version of the standard broth dilution method. In 96-well microtiter plates containing fresh MHB medium, or supplemented MS medium in case of SCH79797, ten-step serial dilutions of an antibiotic from a stock solution were made (2 wells per antibiotic concentration per strain). The two wells contained only supplemented media without any antibiotics […]. Strains were incubated overnight at 37 °C with continuous agitation. Additionally, plasmid containing strains were grown in the presence of 100 µg/mL ampicillin. The culture was diluted to yield a cell suspension with 5 ×10^5 cells/mL and then inoculated into the wells of the microtiter plate. To determine the medium’s background OD value, the first column of the 96-well plate contained solely MHB without inoculum. Prior to the measurement, the plates were incubated at 37 °C with continuous shaking at 900 rpm with 3 mm throw. OD600 values were determined in a microplate reader after 18 hours of incubation (Biotek Synergy 2). The minimum inhibitory concentration (MIC) was determined as the lowest concentration of antibiotic at which the OD600 values were less than 0.05 after subtracting the background value. The log2 of the relative MIC was computed using the following equation:2 log2relativeMICpUCacrAB=MICpUCacrAB/MICpUC118 3 log2relativeMICΔacrB=MICΔacrB/MICwt

CN(C)[C@@H]1C(O)=C(C(N)=O)C(=O)[C@@]2(O)C(O)=C3C(=O)c4c(O)c(NC(=O)CN5CCCC5)cc(F)c4C[C@H]3C[C@@H]12 [Eravacycline]
Relative MIC ([1]; AB-MDR (ATCC BAA 1605), evolved line 1, MIC of evolved line / MIC of ancestor): 16 | Relative MIC ([1]; AB-MDR (ATCC BAA 1605), evolved line 2, MIC of evolved line / MIC of ancestor): 32 | Relative MIC ([1]; AB-MDR (ATCC BAA 1605), evolved line 3, MIC of evolved line / MIC of ancestor): 32 | Relative MIC ([1]; AB-MDR (ATCC BAA 1605), evolved line 4, MIC of evolved line / MIC of ancestor): 32 | Relative MIC ([1]; AB-MDR (ATCC BAA 1605), evolved line 5, MIC of evolved line / MIC of ancestor): 16 | Relative MIC ([1]; AB-MDR (ATCC BAA 1605), evolved line 6, MIC of evolved line / MIC of ancestor): 32 | Relative MIC ([1]; AB-MDR (ATCC BAA 1605), evolved line 7, MIC of evolved line / MIC of ancestor): 32 | Relative MIC ([1]; AB-MDR (ATCC BAA 1605), evolved line 8, MIC of evolved line / MIC of ancestor): 32 | Relative MIC ([1]; AB-MDR (ATCC BAA 1605), evolved line 9, MIC of evolved line / MIC of ancestor): 32 | Relative MIC ([1]; AB-MDR (ATCC BAA 1605), evolved line 10, MIC of evolved line / MIC of ancestor): 32 | Relative MIC (log10) ([1]; AB-MDR (Acinetobacter baumannii ATCC BAA 1605), evolved line 2 adapted to the named antibiotic): 1.505 | Relative MIC (log10) ([1]; AB-MDR (Acinetobacter baumannii ATCC BAA 1605), evolved line 3 adapted to the named antibiotic): 1.505 | Relative MIC (log10) ([1]; AB-MDR (Acinetobacter baumannii ATCC BAA 1605), evolved line 4 adapted to the named antibiotic): 1.505 | Relative MIC (log10) ([1]; AB-MDR (Acinetobacter baumannii ATCC BAA 1605), evolved line 6 adapted to the named antibiotic): 1.505 | Relative MIC (log10) ([1]; AB-MDR (Acinetobacter baumannii ATCC BAA 1605), evolved line 10 adapted to the named antibiotic): 1.505 | Relative MIC ([1]; AB-SEN (ATCC 17978), evolved line 1, MIC of evolved line / MIC of ancestor): 64 | Relative MIC ([1]; AB-SEN (ATCC 17978), evolved line 2, MIC of evolved line / MIC of ancestor): 128 | Relative MIC ([1]; AB-SEN (ATCC 17978), evolved line 3, MIC of evolved line / MIC of ancestor): 128 | Relative MIC ([1]; AB-SEN (ATCC 17978), evolved line 4, MIC of evolved line / MIC of ancestor): 128 | Relative MIC ([1]; AB-SEN (ATCC 17978), evolved line 5, MIC of evolved line / MIC of ancestor): 128 | Relative MIC ([1]; AB-SEN (ATCC 17978), evolved line 6, MIC of evolved line / MIC of ancestor): 128 | Relative MIC ([1]; AB-SEN (ATCC 17978), evolved line 7, MIC of evolved line / MIC of ancestor): 128 | Relative MIC ([1]; AB-SEN (ATCC 17978), evolved line 8, MIC of evolved line / MIC of ancestor): 64 | Relative MIC ([1]; AB-SEN (ATCC 17978), evolved line 9, MIC of evolved line / MIC of ancestor): 128 | Relative MIC ([1]; AB-SEN (ATCC 17978), evolved line 10, MIC of evolved line / MIC of ancestor): 128 | Relative MIC (log10) ([1]; AB-SEN (Acinetobacter baumannii ATCC 17978), evolved line 2 adapted to the named antibiotic): 2.107 | Relative MIC (log10) ([1]; AB-SEN (Acinetobacter baumannii ATCC 17978), evolved line 4 adapted to the named antibiotic): 2.107 | Relative MIC (log10) ([1]; AB-SEN (Acinetobacter baumannii ATCC 17978), evolved line 6 adapted to the named antibiotic): 2.107 | Relative MIC (log10) ([1]; AB-SEN (Acinetobacter baumannii ATCC 17978), evolved line 8 adapted to the named antibiotic): 1.806 | Relative MIC (log10) ([1]; AB-SEN (Acinetobacter baumannii ATCC 17978), evolved line 9 adapted to the named antibiotic): 2.107 | Relative MIC ([1]; Acinetobacter baumannii ATCC 17978 (AB-SEN), evolved line 1): 64 | Relative MIC ([1]; Acinetobacter baumannii ATCC 17978 (AB-SEN), evolved line 2): 128 | Relative MIC ([1]; Acinetobacter baumannii ATCC 17978 (AB-SEN), evolved line 3): 128 | Relative MIC ([1]; Acinetobacter baumannii ATCC 17978 (AB-SEN), evolved line 4): 128 | Relative MIC ([1]; Acinetobacter baumannii ATCC 17978 (AB-SEN), evolved line 5): 128 | Relative MIC ([1]; Acinetobacter baumannii ATCC 17978 (AB-SEN), evolved line 6): 128 | Relative MIC ([1]; Acinetobacter baumannii ATCC 17978 (AB-SEN), evolved line 7): 128 | Relative MIC ([1]; Acinetobacter baumannii ATCC 17978 (AB-SEN), evolved line 8): 64 | Relative MIC ([1]; Acinetobacter baumannii ATCC 17978 (AB-SEN), evolved line 9): 128 | Relative MIC ([1]; Acinetobacter baumannii ATCC 17978 (AB-SEN), evolved line 10): 128 | Relative MIC ([1]; Acinetobacter baumannii ATCC BAA 1605 (AB-MDR), evolved line 2): 32 | Relative MIC ([1]; Acinetobacter baumannii ATCC BAA 1605 (AB-MDR), evolved line 4): 32 | Relative MIC ([1]; Acinetobacter baumannii ATCC BAA 1605 (AB-MDR), evolved line 5): 16 | Relative MIC ([1]; Acinetobacter baumannii ATCC BAA 1605 (AB-MDR), evolved line 6): 32 | Relative MIC ([1]; Acinetobacter baumannii ATCC BAA 1605 (AB-MDR), evolved line 7): 32 | Relative MIC ([1]; Acinetobacter baumannii ATCC BAA 1605 (AB-MDR), evolved line 8): 32 | Relative MIC ([1]; Acinetobacter baumannii ATCC BAA 1605 (AB-MDR), evolved line 9): 32 | Relative MIC ([1]; Acinetobacter baumannii ATCC BAA 1605 (AB-MDR), evolved line 10): 32 | Relative MIC ([1]; Acinetobacter baumannii ATCC BAA 1605 (AB-MDR), evolved line 1): 16 | Relative MIC ([1]; Acinetobacter baumannii ATCC BAA 1605 (AB-MDR), evolved line 3): 32 | Relative MIC (log2) ([2]; replicate 1): 0 | Relative MIC (log2) ([2]; replicate 2): 0 | Relative MIC (log2) ([2]; replicate 3): 0
